Read-outs that look alike come from different tables or passages of the source.
Legend:
CYP2B6 = target: T1, CYP2B6 (Homo sapiens, UniProt P20813); assay: Reversible inhibition kinetics (Lineweaver-Burk), CYP2B6 in HLMs; type: in vitro ADME; parameters: 0.20 mg/mL HLMs; from tissue; host or cells: human liver microsomes; settings: bupropion
T1 sequence (P20813 1-491): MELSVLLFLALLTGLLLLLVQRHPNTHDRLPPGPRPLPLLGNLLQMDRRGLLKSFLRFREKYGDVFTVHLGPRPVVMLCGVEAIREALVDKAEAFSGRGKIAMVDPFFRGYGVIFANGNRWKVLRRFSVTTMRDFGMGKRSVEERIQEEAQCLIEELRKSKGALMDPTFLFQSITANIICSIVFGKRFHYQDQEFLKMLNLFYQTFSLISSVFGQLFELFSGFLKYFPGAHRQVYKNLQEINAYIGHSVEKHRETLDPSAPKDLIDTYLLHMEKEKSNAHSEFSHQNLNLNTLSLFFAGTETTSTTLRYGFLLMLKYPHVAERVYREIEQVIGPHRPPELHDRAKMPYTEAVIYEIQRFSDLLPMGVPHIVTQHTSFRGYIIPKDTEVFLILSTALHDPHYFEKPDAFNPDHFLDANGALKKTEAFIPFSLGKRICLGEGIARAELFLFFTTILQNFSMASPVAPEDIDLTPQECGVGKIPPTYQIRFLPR
Method: (§1) The components of the incubation system were as follows: 0.20 mg/mL HLMs or 0.20 mg/mL RLMs, 0.1 M Tris-HCl, vortioxetine, and the probe substrates of each enzyme. In the study of Km’s (Michaelis–Menten constant) experiment, midazolam (1, 2, 5, 10, 20, 50 and 100 μM in HLMs and RLMs) corresponded to CYP3A4/3A; bupropion (10, 20, 50, 100, 200, 500, 1,000 and 2000 μM in HLMs; 1, 2, 5, 10, 20, 50, 100 and 200 μM in RLMs) corresponded to CYP2B6/2B; amodiaquine (5, 10, 20, 50, 100 and 200 μM in HLMs; 10, 20, 50, 100, 200, 500 μM in RLMs) corresponded to CYP2C8/CYP2C-1; losartan (1, 2, 5, 10, 20, 50, 100, 200 μM in HLMs; 10, 20, 50, 100, 200, 500 and 1,000 μM in RLMs) corresponded to CYP2C9/CYP2C-2; mephenytoin (20, 50, 100, 200, 500 and 1,000 μM in HLMs; 5, 10, 20, 50, 100, 200, 500 and 1,000 μM in RLMs) corresponded to CYP2C19/CYP2C-3; and dextromethorphan (1, 2, 5, 10, 20, 50 and 100 μM in HLMs and RLMs) corresponded to CYP2D6/CYP2D. After 5.0 min of preincubation in the shaking water bath, the reaction was started with the addition of 1.0 mM NADPH. The incubated temperature at 37°C for 30 min. After the incubation, the enzyme reaction was stopped by cooling at −80°C, and 200 μL of acetonitrile and 20 μL of internal standard diazepam (200 ng/mL) were added for protein precipitation. The solution was fully vortexed and centrifuged at 13,000 × rpm for 10 min, and the supernatant was collected for data analysis by UPLC-MS/MS.
The inhibitory mechanism of the inhibitor on the enzyme was generally used by different concentrations of the inhibitor against different concentrations of the probe substrate. The concentrations of the inhibitor and the concentrations of probe substrates in the experiment were estimated based on IC50 and Km values, respectively.
In HLMs, the concentrations of the substrates midazolam, bupropion, amodiaquine, losartan, mephenytoin, and dextromethorphan were 1, 2, 4, 8 μM; 10, 20, 40, 80 μM; 0.8, 1.5, 3, 6 μM; 2, 4, 8, 16 μM; 20, 45, 90, 180 μM; 2.5, 5, 10, 20 μM, respectively. Corresponding to the concentration of vortioxetine were 2, 4, 9, 18 μM; 2, 4, 8, 16 μM; 4, 8, 15, 30 μM; 5, 10, 25, 50 μM; 0.6, 1.2, 2.5, 5 μM; 4.5, 9, 18, 36 μM, respectively.
All experiments results were detected by UPLC-MS/MS, which equipped with a Waters Acquity UPLC system (Milford, MA, United States) and a Waters Xevo TQ-S triple quadrupole tandem mass spectrometer with an electrospray ionization source (Milford, MA, United States). The chromatographic separation was performed on a Waters ACQUITY UPLC BEH C18 column (2.1 × 50 mm, 1.7 μm, Waters Corp.) at 40°C. […]
(§2) IC50 values and enzyme kinetic parameters were calculated by Graphpad Prism 6.0 (GraphPad software Inc., CA, United States). […] Data for each experiment were expressed as mean ± SD (n = 3).

CYP2B = assay: IC50 of vortioxetine on CYP2B (bupropion) in RLMs; type: in vitro ADME; settings: rat, rat liver microsomes, probe bupropion
Method: as §1, with “After 5.0 min of preincubation in the shaking water bath, the reaction was started with the addition of 1.0 mM NADPH. The incubated temperature at 37°C for 30 min. After the incubation, the enzyme reaction was stopped by cooling at −80°C, and 200 μL of acetonitrile and 20 μL of internal standard diazepam (200 ng/mL) were added for protein precipitation. The solution was fully vortexed and centrifuged at 13,000 × rpm for 10 min, and the supernatant was collected for data analysis by UPLC-MS/MS.” left out
(§3) All experiments results were detected by UPLC-MS/MS, which equipped with a Waters Acquity UPLC system (Milford, MA, United States) and a Waters Xevo TQ-S triple quadrupole tandem mass spectrometer with an electrospray ionization source (Milford, MA, United States). […]
as §2

[1] = no reference given; cited from earlier work
CYP2D6 = CYP2D6 (Homo sapiens, UniProt P10635); assay: IC50 of vortioxetine on CYP2D6 (dextromethorphan) in HLMs; type: in vitro ADME; parameters: 0.20 mg/mL HLMs; from tissue; host or cells: human liver microsomes
Method: as §1, with “After 5.0 min of preincubation in the shaking water bath, the reaction was started with the addition of 1.0 mM NADPH. The incubated temperature at 37°C for 30 min. After the incubation, the enzyme reaction was stopped by cooling at −80°C, and 200 μL of acetonitrile and 20 μL of internal standard diazepam (200 ng/mL) were added for protein precipitation. The solution was fully vortexed and centrifuged at 13,000 × rpm for 10 min, and the supernatant was collected for data analysis by UPLC-MS/MS.” left out
as §3, §2

Chain of CYP2D6 (P10635 whole entry): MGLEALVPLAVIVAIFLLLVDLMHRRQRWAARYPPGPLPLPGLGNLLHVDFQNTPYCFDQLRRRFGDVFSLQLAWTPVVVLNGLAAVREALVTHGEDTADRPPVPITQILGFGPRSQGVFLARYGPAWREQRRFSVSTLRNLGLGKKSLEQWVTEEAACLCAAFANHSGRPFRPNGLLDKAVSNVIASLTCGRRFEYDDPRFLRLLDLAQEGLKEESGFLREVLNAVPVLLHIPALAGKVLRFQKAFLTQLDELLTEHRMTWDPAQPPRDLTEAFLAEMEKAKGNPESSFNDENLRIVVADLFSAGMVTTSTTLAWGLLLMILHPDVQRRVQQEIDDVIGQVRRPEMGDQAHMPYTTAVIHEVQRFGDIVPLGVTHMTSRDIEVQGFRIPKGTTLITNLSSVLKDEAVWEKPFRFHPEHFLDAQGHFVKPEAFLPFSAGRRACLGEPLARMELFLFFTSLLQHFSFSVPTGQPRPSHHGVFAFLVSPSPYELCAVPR

For Cc1ccc(Sc2ccccc2N2CCNCC2)c(C)c1 [vortioxetine], the Ki (CYP2B6) was 8.55 µM, the α (CYP2B6) was 2.70 and the Inhibition type (CYP2B6; Lineweaver-Burk plot) was “mixed inhibition”. The αKi (CYP2B6; secondary plot of y-intercepts) was 23.04 µM, the IC50 at 30 min (CYP2B; RLMs 0.20 mg/mL, bupropion at Km, 37°C, 30 min, read-out: IC50) was 8.89 µM and the IC50 at 30 min (CYP2B; inhibitory effect (strength judged by IC50), RLMs) was 1 to 10 µM. The “plasma protein (binding)” value [1] was 99%, the IC50 (CYP2D6; HLMs 0.20 mg/mL, dextromethorphan at Km, 37°C, 30 min, read-out: IC50) was 17.9 µM and the IC50 (CYP2D6; inhibitory effect (strength judged by IC50), HLMs) was greater than 10 µM.

— PMC10544575, “Inhibitory mechanism of vortioxetine on CYP450 enzymes in human and rat liver microsomes” (Frontiers in Pharmacology, 2023)
